# From ChEMBL document CHEMBL4418260, “Cyclopentanecarboxamide derivatives, medicaments containing such compounds and their use” (2017)
# pIC50: −log10 of the molar value.
# How the values were obtained:
# Assay type in all cases: cell-based
# [1] = target: Fatty acid synthase (Homo sapiens, UniProt P49327); experiment: Inhibition of human HeLa cell derived FAS preincubated for 60 mins in presence of acetyl coenzyme A and NADPH followed by malonyl coenzyme A addition and measured after 10 mins by fluorescence method
# [2] = target: Fatty acid synthase (Mus musculus) (UniProt P19096); experiment: Inhibition of FAS in mouse N42 cells assessed as [14C]-acetate incorporation at 10 uM preincubated for 60 mins followed by [14C]-acetate addition and measured after 4 hrs by beta scintillation counting method relative to control; set-up: scale not given: the % may be the effect or the level left
# [3] = target: Fatty acid synthase (Mus musculus) (UniProt P19096); experiment: Inhibition of FAS in mouse N42 cells assessed as [14C]-acetate incorporation at 100 uM preincubated for 60 mins followed by [14C]-acetate addition and measured after 4 hrs by beta scintillation counting method relative to control; set-up: scale not given: the % may be the effect or the level left
# Sequence of Fatty acid synthase (Mus musculus) (P19096 whole entry): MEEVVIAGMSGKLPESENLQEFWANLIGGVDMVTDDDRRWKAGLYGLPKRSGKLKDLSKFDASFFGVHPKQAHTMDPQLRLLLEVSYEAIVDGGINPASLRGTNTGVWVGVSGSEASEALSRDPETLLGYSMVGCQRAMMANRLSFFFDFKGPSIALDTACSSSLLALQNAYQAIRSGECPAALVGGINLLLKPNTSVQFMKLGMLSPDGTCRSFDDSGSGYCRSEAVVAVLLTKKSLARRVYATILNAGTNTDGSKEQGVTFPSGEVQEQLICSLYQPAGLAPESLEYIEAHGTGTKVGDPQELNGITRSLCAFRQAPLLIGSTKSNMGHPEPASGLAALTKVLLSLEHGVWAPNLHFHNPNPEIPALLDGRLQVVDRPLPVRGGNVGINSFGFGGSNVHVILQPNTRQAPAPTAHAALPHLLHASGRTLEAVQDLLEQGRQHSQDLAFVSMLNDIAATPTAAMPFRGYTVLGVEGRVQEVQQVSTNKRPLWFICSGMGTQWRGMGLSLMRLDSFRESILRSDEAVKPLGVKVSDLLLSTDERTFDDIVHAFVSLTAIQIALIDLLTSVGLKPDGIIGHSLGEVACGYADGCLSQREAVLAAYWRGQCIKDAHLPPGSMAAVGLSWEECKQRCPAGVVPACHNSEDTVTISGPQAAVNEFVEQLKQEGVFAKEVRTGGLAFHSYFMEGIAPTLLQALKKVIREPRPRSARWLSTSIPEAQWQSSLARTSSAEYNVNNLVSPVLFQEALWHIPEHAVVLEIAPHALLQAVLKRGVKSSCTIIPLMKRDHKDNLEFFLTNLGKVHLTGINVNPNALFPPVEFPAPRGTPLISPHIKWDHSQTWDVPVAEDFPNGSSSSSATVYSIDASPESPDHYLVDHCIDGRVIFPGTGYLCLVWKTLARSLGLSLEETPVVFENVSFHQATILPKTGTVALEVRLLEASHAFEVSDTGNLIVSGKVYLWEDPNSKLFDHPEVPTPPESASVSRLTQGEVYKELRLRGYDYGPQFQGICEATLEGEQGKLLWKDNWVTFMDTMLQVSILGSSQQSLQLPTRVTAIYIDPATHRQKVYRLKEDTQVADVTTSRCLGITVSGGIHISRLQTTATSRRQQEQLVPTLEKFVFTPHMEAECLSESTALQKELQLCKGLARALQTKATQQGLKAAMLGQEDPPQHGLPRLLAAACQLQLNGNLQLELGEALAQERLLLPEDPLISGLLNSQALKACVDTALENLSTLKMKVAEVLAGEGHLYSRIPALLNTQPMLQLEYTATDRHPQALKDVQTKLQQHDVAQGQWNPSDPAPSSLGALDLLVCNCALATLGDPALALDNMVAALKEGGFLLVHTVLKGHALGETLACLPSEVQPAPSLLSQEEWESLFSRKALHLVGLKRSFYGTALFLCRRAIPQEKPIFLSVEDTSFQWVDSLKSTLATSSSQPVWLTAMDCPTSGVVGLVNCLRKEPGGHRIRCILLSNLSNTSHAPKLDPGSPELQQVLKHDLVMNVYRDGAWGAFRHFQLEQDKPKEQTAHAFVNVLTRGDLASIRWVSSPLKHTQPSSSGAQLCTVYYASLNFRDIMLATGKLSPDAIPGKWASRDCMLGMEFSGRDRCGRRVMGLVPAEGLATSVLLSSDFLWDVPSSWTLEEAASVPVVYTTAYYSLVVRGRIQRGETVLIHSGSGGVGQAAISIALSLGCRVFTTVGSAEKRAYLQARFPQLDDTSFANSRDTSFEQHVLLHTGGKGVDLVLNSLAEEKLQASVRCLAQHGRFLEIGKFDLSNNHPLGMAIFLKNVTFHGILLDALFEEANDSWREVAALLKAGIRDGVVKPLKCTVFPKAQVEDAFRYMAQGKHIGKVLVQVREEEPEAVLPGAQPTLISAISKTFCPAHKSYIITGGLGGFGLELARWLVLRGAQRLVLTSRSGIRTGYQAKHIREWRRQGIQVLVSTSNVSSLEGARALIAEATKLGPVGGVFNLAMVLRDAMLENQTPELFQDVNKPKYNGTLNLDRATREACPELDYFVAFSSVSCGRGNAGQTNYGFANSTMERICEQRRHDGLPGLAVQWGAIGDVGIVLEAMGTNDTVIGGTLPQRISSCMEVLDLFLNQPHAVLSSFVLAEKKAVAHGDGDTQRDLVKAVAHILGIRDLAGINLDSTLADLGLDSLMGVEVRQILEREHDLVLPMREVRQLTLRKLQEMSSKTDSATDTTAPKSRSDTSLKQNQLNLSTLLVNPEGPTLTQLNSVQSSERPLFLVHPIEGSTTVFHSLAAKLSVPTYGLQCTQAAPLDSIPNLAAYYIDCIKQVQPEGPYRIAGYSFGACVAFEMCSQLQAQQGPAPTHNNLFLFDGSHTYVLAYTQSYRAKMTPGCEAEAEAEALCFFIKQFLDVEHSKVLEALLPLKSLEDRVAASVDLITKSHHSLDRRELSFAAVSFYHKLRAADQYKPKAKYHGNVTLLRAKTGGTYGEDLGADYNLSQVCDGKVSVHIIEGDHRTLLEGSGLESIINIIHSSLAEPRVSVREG
# Sequence of Fatty acid synthase (P49327 whole entry): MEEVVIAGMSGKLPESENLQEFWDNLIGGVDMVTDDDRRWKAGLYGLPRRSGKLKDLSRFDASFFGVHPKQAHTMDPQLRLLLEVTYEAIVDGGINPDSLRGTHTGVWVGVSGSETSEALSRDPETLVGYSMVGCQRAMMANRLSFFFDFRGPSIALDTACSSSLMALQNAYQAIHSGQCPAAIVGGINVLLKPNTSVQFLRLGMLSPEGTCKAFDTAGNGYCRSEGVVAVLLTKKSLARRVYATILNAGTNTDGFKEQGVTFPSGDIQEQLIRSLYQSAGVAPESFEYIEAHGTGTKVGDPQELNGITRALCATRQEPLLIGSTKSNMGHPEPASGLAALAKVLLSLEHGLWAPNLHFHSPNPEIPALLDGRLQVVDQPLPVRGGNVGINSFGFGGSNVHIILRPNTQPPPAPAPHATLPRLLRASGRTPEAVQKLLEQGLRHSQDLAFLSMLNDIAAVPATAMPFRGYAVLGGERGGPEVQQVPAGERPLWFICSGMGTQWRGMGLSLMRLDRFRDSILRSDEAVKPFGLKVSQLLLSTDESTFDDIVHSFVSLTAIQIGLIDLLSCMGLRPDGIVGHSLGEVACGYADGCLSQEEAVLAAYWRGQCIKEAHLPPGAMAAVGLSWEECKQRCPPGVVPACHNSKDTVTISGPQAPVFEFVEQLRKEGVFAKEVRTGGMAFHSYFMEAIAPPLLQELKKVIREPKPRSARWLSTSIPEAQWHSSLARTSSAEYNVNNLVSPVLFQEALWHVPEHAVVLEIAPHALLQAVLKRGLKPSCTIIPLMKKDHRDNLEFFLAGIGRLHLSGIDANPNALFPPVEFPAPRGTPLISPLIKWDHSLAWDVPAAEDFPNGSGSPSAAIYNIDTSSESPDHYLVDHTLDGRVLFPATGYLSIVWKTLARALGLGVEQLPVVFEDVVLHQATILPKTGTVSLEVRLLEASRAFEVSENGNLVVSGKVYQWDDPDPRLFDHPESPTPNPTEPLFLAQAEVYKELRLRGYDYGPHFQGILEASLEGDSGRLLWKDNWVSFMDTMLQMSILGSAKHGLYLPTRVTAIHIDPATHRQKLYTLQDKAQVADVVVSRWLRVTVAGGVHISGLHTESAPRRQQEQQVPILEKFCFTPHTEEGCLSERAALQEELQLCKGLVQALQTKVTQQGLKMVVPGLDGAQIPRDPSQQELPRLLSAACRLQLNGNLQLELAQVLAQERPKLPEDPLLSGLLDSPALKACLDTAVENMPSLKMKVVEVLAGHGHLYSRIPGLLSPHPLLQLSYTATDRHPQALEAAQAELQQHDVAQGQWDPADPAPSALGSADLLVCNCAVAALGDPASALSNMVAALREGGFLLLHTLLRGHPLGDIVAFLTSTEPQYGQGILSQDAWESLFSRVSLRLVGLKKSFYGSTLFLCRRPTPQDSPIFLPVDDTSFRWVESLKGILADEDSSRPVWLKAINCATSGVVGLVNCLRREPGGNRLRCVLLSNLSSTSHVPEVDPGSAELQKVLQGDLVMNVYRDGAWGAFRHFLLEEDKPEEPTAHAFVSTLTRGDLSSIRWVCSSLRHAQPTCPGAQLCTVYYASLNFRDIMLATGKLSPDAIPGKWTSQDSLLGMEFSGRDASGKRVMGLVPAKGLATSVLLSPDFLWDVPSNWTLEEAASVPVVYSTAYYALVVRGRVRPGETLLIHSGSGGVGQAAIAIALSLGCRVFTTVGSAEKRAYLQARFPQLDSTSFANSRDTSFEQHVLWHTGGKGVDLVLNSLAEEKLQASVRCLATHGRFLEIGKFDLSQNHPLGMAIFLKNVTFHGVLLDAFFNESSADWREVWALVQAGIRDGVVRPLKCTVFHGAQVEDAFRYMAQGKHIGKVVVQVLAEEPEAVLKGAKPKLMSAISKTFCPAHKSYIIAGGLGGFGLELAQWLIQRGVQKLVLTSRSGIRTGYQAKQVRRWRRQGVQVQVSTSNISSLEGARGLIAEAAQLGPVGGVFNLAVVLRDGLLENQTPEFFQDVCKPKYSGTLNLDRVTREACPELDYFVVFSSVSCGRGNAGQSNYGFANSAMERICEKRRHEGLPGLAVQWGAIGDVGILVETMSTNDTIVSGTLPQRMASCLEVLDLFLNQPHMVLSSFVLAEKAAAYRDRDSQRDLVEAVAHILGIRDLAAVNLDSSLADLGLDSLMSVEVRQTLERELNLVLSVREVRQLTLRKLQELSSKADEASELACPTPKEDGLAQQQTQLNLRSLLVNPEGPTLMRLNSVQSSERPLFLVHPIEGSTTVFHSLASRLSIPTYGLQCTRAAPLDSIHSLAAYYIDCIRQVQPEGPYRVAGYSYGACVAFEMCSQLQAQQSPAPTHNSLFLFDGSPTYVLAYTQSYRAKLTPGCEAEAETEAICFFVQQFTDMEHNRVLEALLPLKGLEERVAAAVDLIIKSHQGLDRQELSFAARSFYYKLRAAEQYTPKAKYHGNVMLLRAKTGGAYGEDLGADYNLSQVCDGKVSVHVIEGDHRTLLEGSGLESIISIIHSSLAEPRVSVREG
Compound,Activity [2] [%],further results
CN(C)CCCCCC(=O)N[C@H]1CC[C@@H](C(=O)N(C)c2ccc(-c3nc4ccccc4o3)cc2)C1,,pIC50 [1]: 5.52 to 6.30
CC(=O)N[C@H]1CC[C@@H](C(=O)N(C)c2ccc(-c3nc4ccccc4o3)cc2)C1,81.7,
CCC(=O)N[C@H]1CC[C@@H](C(=O)N(C)c2ccc(-c3ccccc3)cc2)C1,76.8,
CCCC(=O)N[C@H]1CC[C@@H](C(=O)N(C)c2ccc(-c3nc4ccccc4o3)cc2)C1,81,
CCC(=O)N[C@H]1CC[C@@H](C(=O)N(C)c2ccc(-c3nc4ccccc4[nH]3)cc2)C1,80.8,
CCC(=O)N[C@H]1CC[C@@H](C(=O)N(C)c2ccc(-c3nc4ccccc4o3)cc2)C1,64.1,
CCC(=O)N[C@H]1CC[C@@H](C(=O)N(C)c2ccc(-c3nc4ccccc4n3C)cc2)C1,85.7,
C/C=C/C/C=C/CCC(=O)[C@H]1O[C@H]1C(N)=O,,Activity [3]: 73.3%
